Earlier results in patent publication US10105334B2, “Particle formulations of all-trans retinoic acid and transforming growth factor beta for the treatment of type 1 diabetes mellitus” (University of Pittsburgh—Of the Commonwealth System of …, priority 2014, dated 2018).

Conditions: Tsang et al., Cytokine 7:389-97 (1995)

TGFβ: growth factor and immunomodulatory cytokine
ED50 (physiologically-active concentration): 0.04-0.2 ng/mL
